From patent US12486253B2, “Therapeutics for the degradation of mutant BRAF” (C4 THERAPEUTICS, INC., priority 2021, dated 2025)
Values joined by “and” are separate entries in the source; they are usually repeats but may differ in a detail not shown here. Equal entries are not always repeated. Where two headings read alike, the source gives them in different places.

Biological target: BRAF V600E (Homo sapiens, UniProt P15056, V600E)
Test: HiBiT cellular BRAF^V600E degradation assay
Type: cell-based
Settings: for DC50: concentration at which 50% of total cellular BRAF^V600E is degraded; for Emax: read-out: HiBit 24 h Emax
[1] = A375.10 cells, 24 h, residual protein remaining in the cell

Sequence of BRAF V600E (P15056 whole entry V600E): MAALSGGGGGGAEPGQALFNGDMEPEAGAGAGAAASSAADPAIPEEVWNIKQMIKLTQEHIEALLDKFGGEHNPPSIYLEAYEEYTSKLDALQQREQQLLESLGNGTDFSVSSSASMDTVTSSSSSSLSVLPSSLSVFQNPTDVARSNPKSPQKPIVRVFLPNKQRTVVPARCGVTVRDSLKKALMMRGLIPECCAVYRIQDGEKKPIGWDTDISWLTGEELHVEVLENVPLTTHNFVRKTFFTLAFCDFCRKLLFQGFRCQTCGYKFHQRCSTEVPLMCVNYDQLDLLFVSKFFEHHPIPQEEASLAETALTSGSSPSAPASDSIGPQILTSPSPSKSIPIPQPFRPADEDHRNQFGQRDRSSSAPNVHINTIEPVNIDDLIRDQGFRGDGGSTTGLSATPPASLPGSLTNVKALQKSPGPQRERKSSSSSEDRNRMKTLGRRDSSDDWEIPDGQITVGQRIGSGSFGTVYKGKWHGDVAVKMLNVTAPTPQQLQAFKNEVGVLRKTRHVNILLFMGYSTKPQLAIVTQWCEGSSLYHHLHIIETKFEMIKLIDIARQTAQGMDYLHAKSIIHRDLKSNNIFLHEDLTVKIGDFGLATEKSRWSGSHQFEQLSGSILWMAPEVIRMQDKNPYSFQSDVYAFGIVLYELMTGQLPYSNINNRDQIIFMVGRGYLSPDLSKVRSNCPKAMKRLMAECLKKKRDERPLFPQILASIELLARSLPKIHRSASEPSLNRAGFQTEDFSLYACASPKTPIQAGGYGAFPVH

Row | DC50 (A375.10 cells, 24 h) | Emax [1] | HiBit 24 h Emax [1] | Compound | Emax
1 | 32.6 nM | 8.77% | – | CCN(C)S(=O)(=O)Nc1ccc(F)c(Oc2ccc3ncn([C@@H]4COC5(CCN(C(=O)CN6CCC(c7ccc(NC8CCC(=O)NC8=O)cc7F)CC6)CC5)C4)c(=O)c3c2)c1C#N (single isomer, unassigned) [Example 33] | –
2 | 29.9 nM | 10.8% | – | CCN(C)S(=O)(=O)Nc1ccc(F)c(Oc2ccc3ncn([C@H]4COC5(CCN(C(=O)CN6CCC(c7ccc(NC8CCC(=O)NC8=O)cc7F)CC6)CC5)C4)c(=O)c3c2)c1C#N (single isomer, unassigned) [Example 34] | –
3 | 8.13 nM | 7.08% | – | CCN(C)S(=O)(=O)Nc1ccc(F)c(Oc2ccc3ncn([C@H]4CCC5(CCN(C(=O)CN6CCC(c7ccc(NC8CCC(=O)NC8=O)cc7F)CC6)CC5)C4)c(=O)c3c2)c1C#N (single isomer, unassigned) [Example 40] | –
4 | 16.1 nM | 9.27% | – | CCN(C)S(=O)(=O)Nc1ccc(F)c(Oc2ccc3ncn([C@@H]4CCC5(CCN(C(=O)CN6CCC(c7ccc(NC8CCC(=O)NC8=O)cc7F)CC6)CC5)C4)c(=O)c3c2)c1C#N (single isomer, unassigned) [Example 41] | –
5 | 31.8 nM | 9.51% | – | CCN(C)S(=O)(=O)Nc1ccc(F)c(Oc2ccc3ncn([C@H]4COC5(CCN(C(=O)CN6CCC(c7ccc(NC8CCC(=O)NC8=O)cc7F)CC6)CC5)C4)c(=O)c3c2Cl)c1C#N (single isomer, unassigned) [Example 77] | –
6 | 49.7 nM | 9.7% | – | CCN(C)S(=O)(=O)Nc1ccc(F)c(Oc2ccc3ncn([C@@H]4COC5(CCN(C(=O)CN6CCC(c7ccc(NC8CCC(=O)NC8=O)cc7F)CC6)CC5)C4)c(=O)c3c2Cl)c1C#N (single isomer, unassigned) [Example 78] | –
7 | 12.4 nM | 11.5% | – | CCN(C)S(=O)(=O)Nc1ccc(F)c(Oc2ccc3ncn(C4COC5(CCN(C(=O)CN6CCC(c7ccc8c(C9CCC(=O)NC9=O)nn(C)c8c7)CC6)CC5)C4)c(=O)c3c2)c1C#N (single isomer, unassigned) [Example 150] | –
8 | 11.9 nM | 31.5% | – | CCN(C)S(=O)(=O)Nc1ccc(F)c(Oc2ccc3ncn([C@H]4COC5(CCN(C(=O)C[C@H]6CC[C@H](c7ccc8c(C9CCC(=O)NC9=O)nn(C)c8c7)CC6)CC5)C4)c(=O)c3c2)c1C#N (single isomer, unassigned) [Example 169] | –
9 | 30.9 nM | 21.2% | – | CCN(C)S(=O)(=O)Nc1ccc(F)c(Oc2ccc3ncn([C@H]4COC5(CCN(C(=O)C[C@H]6CC[C@@H](c7ccc8c(C9CCC(=O)NC9=O)nn(C)c8c7)CC6)CC5)C4)c(=O)c3c2)c1C#N (single isomer, unassigned) [Example 170] | –
10 | 37.5 nM | 11.3% | – | CCN(C)S(=O)(=O)Nc1ccc(F)c(Oc2ccc3ncn([C@H]4COC5(CCN(C(=O)CN6CC[C@H](c7cc8c(cc7F)c(N7CCC(=O)NC7=O)nn8C)C(F)(F)C6)CC5)C4)c(=O)c3c2)c1C#N (single isomer, unassigned) [Example 203] | –
11 | 29.8 nM | 10.9% | – | CCN(C)S(=O)(=O)Nc1ccc(F)c(Oc2ccc3ncn([C@H]4COC5(CCN(C(=O)CN6CC[C@@H](c7cc8c(cc7F)c(N7CCC(=O)NC7=O)nn8C)C(F)(F)C6)CC5)C4)c(=O)c3c2)c1C#N (single isomer, unassigned) [Example 204] | –

Continued, compound first:

Row | Compound | DC50 (A375.10 cells, 24 h) | Emax [1] | HiBit 24 h Emax [1] | Emax
12 | CCN(C)S(=O)(=O)Nc1ccc(F)c(Oc2ccc3ncn([C@H]4COC5(CCN(C(=O)CN6CCC(c7ccc(NC8CCC(=O)NC8=O)cc7F)CC6)CC5)C4)c(=O)c3c2Br)c1C#N (single isomer, unassigned) [Example 73] | 30.7 nM | 12% | – | –
13 | CCN(C)S(=O)(=O)Nc1ccc(F)c(Oc2ccc3ncn([C@H]4CCC5(CCN(C(=O)CN6CCC(c7ccc(NC8CCC(=O)NC8=O)cc7F)CC6)CC5)C4)c(=O)c3c2Cl)c1C#N (single isomer, unassigned) [Example 79] | 20.1 nM | 12.9% | – | –
14 | CCN(C)S(=O)(=O)Nc1ccc(F)c(Oc2ccc3ncn([C@@H]4CCC5(CCN(C(=O)CN6CCC(c7ccc(NC8CCC(=O)NC8=O)cc7F)CC6)CC5)C4)c(=O)c3c2Cl)c1C#N (single isomer, unassigned) [Example 80] | 30.5 nM | 13.8% | – | –
15 | CCN(C)S(=O)(=O)Nc1ccc(F)c(Nc2ccc3ncn([C@H]4COC5(CCN(C(=O)CN6CCC(c7ccc(NC8CCC(=O)NC8=O)cc7F)CC6)CC5)C4)c(=O)c3c2)c1C#N (single isomer, unassigned) [Example 82] | 20.7 nM | 6.45% | – | –
16 | CCN(C)S(=O)(=O)Nc1ccc(F)c(Oc2ccc3ncn([C@H]4COC5(CCN(C6CCC(c7ccc(NC8CCC(=O)NC8=O)cc7F)CC6)CC5)C4)c(=O)c3c2)c1C#N (single isomer, unassigned) [Example 83] | 16.3 nM | – | 27.77% | –
17 | CCN(C)S(=O)(=O)Nc1ccc(F)c(Oc2ccc3ncn([C@H]4COC5(CCN(C6CCC(c7ccc(NC8CCC(=O)NC8=O)cc7F)CC6)CC5)C4)c(=O)c3c2)c1C#N (single isomer, unassigned) [Example 131] | – | – | 8.5% and 8.05% | –
18 | CCN(C)S(=O)(=O)Nc1ccc(F)c(Oc2ccc3ncn([C@H]4COC5(CCN(C(=O)CC6(O)CCN(c7cc8c(cc7F)c(N7CCC(=O)NC7=O)nn8C)CC6)CC5)C4)c(=O)c3c2F)c1C#N (single isomer, unassigned) [Example 174] | 25.6 nM | 21.2% | – | –
19 | CCN(C)S(=O)(=O)Nc1ccc(F)c(Nc2ccc3ncn([C@H]4COC5(CCN(C(=O)CC6(O)CCN(c7cc8c(cc7F)c(N7CCC(=O)NC7=O)nn8C)CC6)CC5)C4)c(=O)c3c2)c1C#N (single isomer, unassigned) [Example 178] | 6.13 nM | 19.1% | – | –
20 | CCN(C)S(=O)(=O)Nc1ccc(F)c(Oc2ccc3ncn([C@H]4COC5(CCN(C(=O)CC6(O)CCN(c7cc8c(cc7F)c(N7CCC(=O)NC7=O)nn8C)CC6)CC5)C4)c(=O)c3c2OC)c1C#N (single isomer, unassigned) [Example 181] | 19.9 nM | 19.1% | – | –
21 | CCN(C)S(=O)(=O)Nc1ccc(F)c(Nc2ccc3ncn([C@H]4COC5(CCN(C(=O)CC6(O)CCN(c7cc8c(cc7F)c(N7CCC(=O)NC7=O)nn8C)CC6)CC5)C4)c(=O)c3c2F)c1C#N (single isomer, unassigned) [Example 184] | 8.55 nM | 18% | – | –
22 | CCN(C)S(=O)(=O)Nc1ccc(F)c(Nc2ccc3ncn([C@H]4COC5(CCN(C(=O)CC6(O)CCN(c7cc8c(cc7F)c(N7CCC(=O)NC7=O)nn8C)CC6)CC5)C4)c(=O)c3c2Cl)c1C#N (single isomer, unassigned) [Example 185] | 5.77 nM | 18.5% | – | –
23 | CCN(C)S(=O)(=O)Nc1ccc(F)c(Nc2ccc3ncn([C@H]4COC5(CCN(C(=O)CC6CCN(c7cc8c(cc7F)c(N7CCC(=O)NC7=O)nn8C)CC6)CC5)C4)c(=O)c3c2F)c1C#N (single isomer, unassigned) [Example 202] | 5.17 nM | 23.9% | – | –
24 | CCN(C)S(=O)(=O)Nc1ccc(F)c(Oc2ccc3ncc(C4COC5(CCN(C(=O)CC6(O)CCN(c7cc8c(cc7F)c(N7CCC(=O)NC7=O)nn8C)CC6)CC5)C4)nc3c2)c1C#N (single isomer, unassigned) [Example 222] | 20 nM | 24.4% | – | –
25 | CCN(C)S(=O)(=O)Nc1ccc(F)c(Oc2ccc3ncc([C@H]4COC5(CCN(C(=O)CC6(O)CCN(c7cc8c(cc7F)c(N7CCC(=O)NC7=O)nn8C)CC6)CC5)C4)c(OC)c3c2)c1C#N (single isomer, unassigned) [Example 225] | > 5000 nM | 65.3% | – | –
26 | CCN(C)S(=O)(=O)Nc1ccc(F)c(Oc2ccc3ncc([C@@H]4COC5(CCN(C(=O)CC6(O)CCN(c7cc8c(cc7F)c(N7CCC(=O)NC7=O)nn8C)CC6)CC5)C4)c(OC)c3c2)c1C#N (single isomer, unassigned) [Example 226] | 39.4 nM | 28.2% | – | –
27 | CCN(C)S(=O)(=O)Nc1ccc(F)c(Oc2ccc3ncn(-c4cnc(N5CCN(C(=O)CN6CCC(c7ccc(NC8CCC(=O)NC8=O)cc7F)CC6)CC5)nc4)c(=O)c3c2N)c1C#N (stereo in doubt) [Example 102, 5-amino-6-[2-cyano-3-[[ethyl(methyl)sulfamoyl]amino]-6-fluorophenoxy]-3-[2-[4-[2-[4-[4-[[(3S)-2,6-dioxopiperidin-3-yl]amino]-2-fluorophenyl]piperidin-1-yl]acetyl]piperazin-1-yl]pyrimidin-5-yl]-4-oxoquinazoline] | 15 nM | – | 9.75% | –
28 | CCN(C)S(=O)(=O)Nc1ccc(F)c(Oc2ccc3ncn(CCC4CCN(C(=O)CN5CCC(c6ccc(NC7CCC(=O)NC7=O)cc6F)CC5)CC4)c(=O)c3c2)c1C#N (centres unmarked) [Example 1, 6-[2-cyano-3-[[ethyl(methyl)sulfamoyl]amino]-6-fluorophenoxy]-3-[2-[1-[2-[4-[4-[(2,6-dioxopiperidin-3-yl)amino]-2-fluorophenyl]piperidin-1-yl]acetyl]piperidin-4-yl]ethyl]-4-oxoquinazoline] | 46.9 nM | 13.9% | – | –
29 | CCN(C)S(=O)(=O)Nc1ccc(F)c(Oc2ccc3ncn(CCC4CCN(C(=O)CN5CCC(c6ccc(C7CCC(=O)NC7=O)cc6F)CC5)CC4)c(=O)c3c2)c1C#N (centres unmarked) [Example 2, 6-[2-cyano-3-[[ethyl(methyl)sulfamoyl]amino]-6-fluorophenoxy]-3-[2-[1-[2-[4-[4-(2,6-dioxopiperidin-3-yl)-2-fluorophenyl]piperidin-1-yl]acetyl]piperidin-4-yl]ethyl]-4-oxoquinazoline] | 48.6 nM | 13.5% | – | –
30 | CCN(C)S(=O)(=O)Nc1ccc(F)c(Oc2ccc3ncn(CCC4CCN(C(=O)CN5CCC(c6ccc(NC7CCC(=O)NC7=O)c(F)c6)CC5)CC4)c(=O)c3c2)c1C#N (centres unmarked) [Example 3, 6-[2-cyano-3-[[ethyl(methyl)sulfamoyl]amino]-6-fluorophenoxy]-3-[2-[1-[2-[4-[4-[(2,6-dioxopiperidin-3-yl)amino]-3-fluorophenyl]piperidin-1-yl]acetyl]piperidin-4-yl]ethyl]-4-oxoquinazoline] | 35.9 nM | – | – | 14.7%
